Read-outs that look alike come from different tables or passages of the source. Marks after values point to notes of the source that are not given here. Where a SMILES comes first, the peptide text is derived from it. The star is where a group is joined. Cbz = O=C(OCc1ccccc1)*

The text below walks through data of patent publication US20240010610A1, “COMPOUNDS FOR TREATING SEGMENTAL PROGEROID SYNDROMES” (Progelife, priority 2020, published 2024).

One data set relates to progerin. Description: Progerin expression by western blot, normalised to total protein (Revert protein stain). As to conditions: T=72 hours, mean of n=3 unless footnoted; for Mean decrease of progerin expression relative to DMSO control: compounds tested at CV25, HGPS cells; for Mean change of progerin expression relative to DMSO control: compounds tested at CV75, HGPS cells, decrease (−) or increase. It counts as cell-based, human. The procedure:
All molecules were diluted in DMSO at 10 mM. […] Drug efficiency was evaluated in 6-well plates.
Total fibroblast proteins were extracted after 72 hours treatment in 100 μL of NP40 (Invitrogen) with 1× protease and phosphatase inhibitor cocktail (Life Technologies). Lysats were incubated on ice for 30 minutes, with vortexing at 10-minute intervals. Finally, they were sonicated four times (20 sec each) and then centrifuged at 13000 rpm for 10 minutes at 4° C.
Protein concentrations were determined with the BCA™ Protein Assay (Life Technologies).
Protein lysates were separated on Nupage Novex 4-12% Bis-Tris Midi precast gels (Life Technologies) and transferred to Immobilon-FL PVDF membranes (Millipore, Molsheim, France). Membranes were blocked for one hour in 1:1 diluted blocking buffer for near infrared fluorescent western blotting (Rockland, Le Perray, France). Blocked membranes were incubated with primary antibodies overnight at 4° C., following which they were washed and incubated with IR-Dye conjugated secondary antibodies for one hour at RT. Bound antibodies were detected and analyzed on an Odyssey imaging system (Li-COR Biosciences, Bad Homburg, Germany) according to the manufacturer's instructions. Revert Protein Stain (Li-COR Biosciences) was used as a total protein loading control in addition to two traditional protein loading control GAPDH and Actin. Progerin and SRSF1 levels were quantified and normalized by Revert staining using Image Studio Lite™ software developed by Li-COR.
The following antibodies were used in this study: rabbit monoclonal anti-lamin A/C (ab108922, 1/1000, Abcam, Amsterdam, Netherlands), rabbit monoclonal anti-SRSF1 (SF2) (ab129108, 1/1000, Abcam), mouse monoclonal anti-GAPDH (MAB374, 1/40000, Millipore, Molsheim, France) and mouse monoclonal anti-actin (MAB1501R, 1/10000, Millipore. Secondary antibodies conjugated with IR-Dye 800CW or 680 were used according to the manufacturer's instructions (926-32213 and 926-68072, 1/5000, Li-COR Biosciences).
Mean decrease of progerin expression (presented as a percentage of the concentration measured in DMSO control) with compounds tested at CV25, in HGPS cells at T=72 hours, determined by western blot analysis and normalised to the total amount of protein (Revert protein stain) (mean of n=3 (range)) is presented in the following Table 1:
Mean change (decrease (−) or increase) of progerin expression (presented as a percentage of the concentration measured in DMSO control) with compounds tested at CV75, in HGPS cells at T=72 hours, determined by western blot analysis and normalised to the total amount of protein (Revert protein stain) (mean of n=3 (range)) is presented in the following Table 2: […]
For orientation: A western blot detects proteins with antibodies after separation by electrophoresis.

For data set [1], the system named is HGPS fibroblast. Description: Cell viability and assessment of toxicity (PrestoBlue, dose response). As to conditions: 72 hours of treatment.
Experimental: (§1) Fibroblasts from HGPS donors from passage 18 to 24 were cultured in DMEM low glucose (Life Technologies, Courtabœuf, France) containing 15% FBS (Life Technologies), 2 mM L-glutamine (Life Technologies) and 100 U/mL penicillin-streptomycin (Life Technologies) at 37° C. in a humidified atmosphere containing 5% CO2.
(§2) All molecules were diluted in DMSO at 10 mM. Concentrations from 100 μM to 0.0001 nM were used to test cell viability in 96-well plates. Drug efficiency was evaluated in 6-well plates.
(§3) Assays were carried out in 96-well microplates. After 72 hours of treatment, the cells were washed once with 100 μL DPBS (no calcium, no magnesium). Then 100 μl of PrestoBlue solution (Life Technologies) diluted at 10% in DPBS was added to each well. Plates were incubated at 37° C. for 30 minutes. The fluorescence intensity was measured by multiwell plate reader (Glomax microplate reader, Promega, Charbonnières les Bains, France) using green filter (Excitation 525 nm/emission 580-640 nm). Fluorescence intensities values were pasted in Prism Software (Graph Pad, San Diego, CA) to perform a dose response analysis. CV25 correspond to drug concentrations at which HGPS fibroblast cell viability was 25%. CV75 correspond to drug concentrations at which HGPS fibroblast cell viability was 75%.
In data set [2] the test system is HGPS fibroblast. As to conditions: human, 72 h.
Experimental: as §1, §2, §3

On to `CC(C)C[C@@H](C=O)NC(=O)[C@H](CC(C)C)NC(=O)[C@H](CC(C)C)NC(=O)OCc1ccccc1` [Compound 1, Z-Leu-Leu-Leucinal, reference compound] (Cbz-Leu-Leu-Leu-aldehyde), for which, in the data set on progerin, the “Mean decrease of progerin expression relative to DMSO control” value was 67* % and the “Mean change of progerin expression relative to DMSO control” value is −3* %. Also, the CV25 with HGPS fibroblast [1] (drug concentration at which HGPS fibroblast cell viability was 25%) worked out at 0.270 µM. In addition, the CV75 in the data set with HGPS fibroblast [1] (drug concentration at which HGPS fibroblast cell viability was 75%) stood at 0.137 µM.

As for `CC(=O)N[C@@H](CC(C)C)C(=O)N[C@@H](CC(C)C)C(=O)N[C@H](C=O)CC(C)C` [Compound 3] (Ac-Leu-Leu-Leu-aldehyde), in the data set with progerin, the “Mean decrease of progerin expression relative to DMSO control” value was 71% and the “Mean change of progerin expression relative to DMSO control” value is on record as 0%. Further, in the data set on HGPS fibroblast [2], the CV25 came to 1.800 µM and the CV75 worked out at 0.720 µM.

On to `CC(C)C[C@@H](C=O)NC(=O)[C@H](CC(C)C)NC(=O)[C@H](Cc1ccccc1)NC(=O)OCc1ccccc1` [Compound 4, Z-Phenylalanine-Leucine-Leucinal] (Cbz-Phe-Leu-Leu-aldehyde), for which, in the data set on progerin, the “Mean decrease of progerin expression relative to DMSO control” value was found to be 70% and the “Mean change of progerin expression relative to DMSO control” value is given as −12%. Also, in the data set on HGPS fibroblast [2], the CV25 was determined as 0.402 µM and the CV75 was 0.133 µM.

As to `CC(C)C[C@@H](C=O)NC(=O)[C@H](Cc1ccccc1)NC(=O)[C@H](CC(C)C)NC(=O)OCc1ccccc1` [Compound 6, Z-Leucine-Phenylalanine-Leucinal] (Cbz-Leu-Phe-Leu-aldehyde), in the data set on progerin, the “Mean decrease of progerin expression relative to DMSO control” value stood at 69% and the “Mean change of progerin expression relative to DMSO control” value is listed as 6%. In the data set with HGPS fibroblast [2], this compound came in with a CV25 of 0.142 µM and a CV75 of 0.060 µM.

In the case of `CC(C)C[C@@H](C=O)NC(=O)[C@H](CC(C)C)NC(=O)[C@H](CC(C)C)NC(=O)c1cnccn1` [Compound 7], in the data set with progerin, the “Mean decrease of progerin expression relative to DMSO control” value came out at 79% and the “Mean change of progerin expression relative to DMSO control” value is on record as −36%. In the data set with HGPS fibroblast [2], the CV25 came out at 5.5 µM and the CV75 was determined as 2.1 µM.

With `CC(C)C[C@@H](C=O)NC(=O)[C@H](CC(C)C)NC(=O)[C@H](CC(C)C)NC(=O)Cc1ccc(F)cc1F` [Compound 8], in the data set with progerin, the “Mean decrease of progerin expression relative to DMSO control” value was found to be 47% and the “Mean change of progerin expression relative to DMSO control” value is given as −16%. In the data set with HGPS fibroblast [2], the CV25 amounted to 0.152 µM and the CV75 came to 0.073 µM.

As to `CC(C)C[C@@H](C=O)NC(=O)[C@H](CC(C)C)NC(=O)[C@H](CC(C)C)NC(=O)c1cc(Cl)ccc1Cl` [Compound 12], in the data set with progerin, the “Mean decrease of progerin expression relative to DMSO control” value is 61** % and the “Mean change of progerin expression relative to DMSO control” value is −1** %. Also, in the data set on HGPS fibroblast [2], the CV25 is 0.063 µM and the CV75 was found to be 0.001 µM.

Regarding `CC(C)C[C@H](NC(=O)OCc1ccccc1)C(=O)N[C@@H](CC(C)C)C(=O)N[C@H](C(=O)N[C@H](C=O)Cc1ccc(O)cc1)C(C)C` [Compound 13] (Cbz-LLVY-aldehyde), in the data set on progerin, the “Mean decrease of progerin expression relative to DMSO control” value was 68*** % and the “Mean change of progerin expression relative to DMSO control” value is −29*** %. Moreover, in the data set on HGPS fibroblast [2], the CV25 was 0.020 µM and the CV75 worked out at 0.007 µM.

Regarding `CC(C)C[C@@H](C=O)NC(=O)[C@H](CC(C)C)NC(=O)[C@H](CC(C)C)NC(=O)Cc1cccc(CC(=O)N[C@@H](CC(C)C)C(=O)N[C@@H](CC(C)C)C(=O)N[C@H](C=O)CC(C)C)c1` [Compound 14], in the data set with progerin, the “Mean decrease of progerin expression relative to DMSO control” value turned out to be 66% and the “Mean change of progerin expression relative to DMSO control” value was −1%. In the data set with HGPS fibroblast [2], this compound showed a CV25 of 0.589 µM and a CV75 of 0.155 µM.

Consider `CC(C)C[C@@H](/C=N/NC(N)=O)NC(=O)[C@H](CC(C)C)NC(=O)[C@H](CC(C)C)NC(=O)OCc1ccccc1` [Compound 16], for which, in the data set with progerin, the “Mean decrease of progerin expression relative to DMSO control” value is given as 66% and the “Mean change of progerin expression relative to DMSO control” value came to 0%. Besides, in the data set on HGPS fibroblast [2], the CV25 is 1.750 µM and the CV75 is 0.195 µM.
